Reference: patent publication US11897862B2 (Gilead Sciences, Inc., priority 2022, dated 2024)

Legend:
IKZF1 = target: T1, IKZF1 (Homo sapiens, UniProt Q13422+Q96SW2); test: HEK293 HiBiT in vitro degradation of IKZF1; type: cell-based; conditions: for DC50: 18-24 hr incubation, normalized to DMSO control, read-out: IKZF1 EC50; for Dmax: HEK293, HEK293 HiBiT
T1 construct: expressed in transfected cells
Procedure: (§1) In vitro degradation of IKZF1, IKZF2, and SALL4 was measured using HiBiT protein tagging and detection technology (Promega).
(§2) HiBit technology was used to develop the quantitative assays to measure the cellular IKZFs level by tagging an 11 amino acid HiBit peptides […] to the protein of interest. Reporter plasmids were generated by fusing a linker sequence ([…]) followed by the HiBit tag at the C-terminus of IKZF1, IKZF2, and SALL4. The fusion fragments were subsequently cloned into pcDNA5 pcDNA™5/FRT/TO plasmids (Thermo Fisher, cat #V652020) downstream of the tetracycline operator. The resulting plasmids were co-transfected with pOG44 Flp-Recombinase Expression Vector (Thermo Fisher, cat #V600520) into Flp-In™ T-REx HEK293 line (Thermo Fisher, cat #R78077) and a stable cell pool was selected by adding 100 µg/ml of Hygromycin (Thermo Fisher, cat #10687010). The reporter cell enabled Tet-On inducible reporter expression from a single copy of the integrated gene.
(§3) On Day 1, Cells were grown to ˜80% confluency in tissue culture medium (DMEM Glutamax (Gibco10569), 10% Tet free FBS (Takara 631106), and PenStrep Glutamin (Gibco 10378)) in tissue culture flasks. Doxycycline was then added to a final concentration of […] to induce reporter expression at 37° C. overnight.
(§4) On Day 2, 125 nL of serially-diluted solution of testing compounds were dispensed into 384-well white solid assay plates via ECHO acoustic liquid handler. Cells were lifted by 0.25% Trypsin (Gibco 25200) then pelleted by centrifugation (Beckman Avanti J-E) at 500×g for 5 min. Cell pellets were resuspended in TC medium at the concentration of 3e5/mL and 25 μL of cell suspension were added into each well of compound-spotted plates. The plates were returned to a 37° C. incubator overnight (18-24 hr).
(§5) On Day 3, assay plates were removed from the tissue culture incubator and 25 μL of Nano-Glo lytic detection system (Promega, cat #N3030) was added to each well. Plates were incubated at r.t. for 3 min with shaking, and luminescence was read using an Envision reader (Perkin Elmer).
(§6) To assess the IKZF1, IKZF2, and SALL4 degrader potential of exemplified compounds of this disclosure and certain Reference Compounds EC50 and Dmax values were determined for the compounds of Examples 1 to 383 and Reference Compounds A-1, B-1, B-2, B-3, B-4, and C-1 in the HiBiT assays. Asterisks (*) indicate examples for which the data shown represents an average of n≥3.

IKZF2 = IKZF2 (Homo sapiens, UniProt Q96SW2+Q9UKS7); test: HEK293 HiBiT in vitro degradation of IKZF2; type: cell-based; set-up: expressed in transfected cells; conditions: for Dmax: HEK293, HEK293 HiBiT; for Dmax / IKZF2 Dmax: maximum degradation at the highest concentration tested; for DC50 / IKZF2 Dmax: HEK293 HiBiT; for DC50: 18-24 hr incubation, normalized to DMSO control, read-out: IKZF2 EC50
Procedure: as §1, §2, §3, §4, §5, §6

[1] = maximum degradation at the highest concentration tested

T1 sequence (Q13422 whole entry): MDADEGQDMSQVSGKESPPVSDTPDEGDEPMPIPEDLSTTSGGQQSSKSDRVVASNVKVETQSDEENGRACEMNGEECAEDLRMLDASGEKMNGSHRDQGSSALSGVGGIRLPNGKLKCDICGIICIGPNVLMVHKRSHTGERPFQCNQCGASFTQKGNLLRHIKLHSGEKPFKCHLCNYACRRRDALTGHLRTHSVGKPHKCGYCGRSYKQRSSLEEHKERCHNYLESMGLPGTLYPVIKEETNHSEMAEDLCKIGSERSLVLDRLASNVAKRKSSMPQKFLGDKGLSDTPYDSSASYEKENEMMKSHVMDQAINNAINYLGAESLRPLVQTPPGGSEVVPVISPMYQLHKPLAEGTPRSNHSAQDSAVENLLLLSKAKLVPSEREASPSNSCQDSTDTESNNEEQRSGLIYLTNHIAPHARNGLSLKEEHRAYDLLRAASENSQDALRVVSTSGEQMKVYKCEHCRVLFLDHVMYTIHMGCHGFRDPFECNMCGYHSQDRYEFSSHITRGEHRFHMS
T1 sequence (Q96SW2 whole entry): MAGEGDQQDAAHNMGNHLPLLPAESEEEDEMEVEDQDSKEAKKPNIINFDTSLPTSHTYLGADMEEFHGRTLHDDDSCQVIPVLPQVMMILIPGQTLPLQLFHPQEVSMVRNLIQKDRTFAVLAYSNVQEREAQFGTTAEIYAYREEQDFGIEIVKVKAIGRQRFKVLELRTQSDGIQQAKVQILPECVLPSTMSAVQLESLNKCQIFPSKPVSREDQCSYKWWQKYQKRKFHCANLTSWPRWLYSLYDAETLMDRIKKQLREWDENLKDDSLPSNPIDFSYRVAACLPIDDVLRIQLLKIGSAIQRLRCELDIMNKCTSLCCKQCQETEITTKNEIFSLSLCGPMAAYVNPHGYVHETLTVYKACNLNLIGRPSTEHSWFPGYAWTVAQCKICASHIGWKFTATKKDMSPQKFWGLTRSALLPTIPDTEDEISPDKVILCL
T1 sequence (Q16531 whole entry partner): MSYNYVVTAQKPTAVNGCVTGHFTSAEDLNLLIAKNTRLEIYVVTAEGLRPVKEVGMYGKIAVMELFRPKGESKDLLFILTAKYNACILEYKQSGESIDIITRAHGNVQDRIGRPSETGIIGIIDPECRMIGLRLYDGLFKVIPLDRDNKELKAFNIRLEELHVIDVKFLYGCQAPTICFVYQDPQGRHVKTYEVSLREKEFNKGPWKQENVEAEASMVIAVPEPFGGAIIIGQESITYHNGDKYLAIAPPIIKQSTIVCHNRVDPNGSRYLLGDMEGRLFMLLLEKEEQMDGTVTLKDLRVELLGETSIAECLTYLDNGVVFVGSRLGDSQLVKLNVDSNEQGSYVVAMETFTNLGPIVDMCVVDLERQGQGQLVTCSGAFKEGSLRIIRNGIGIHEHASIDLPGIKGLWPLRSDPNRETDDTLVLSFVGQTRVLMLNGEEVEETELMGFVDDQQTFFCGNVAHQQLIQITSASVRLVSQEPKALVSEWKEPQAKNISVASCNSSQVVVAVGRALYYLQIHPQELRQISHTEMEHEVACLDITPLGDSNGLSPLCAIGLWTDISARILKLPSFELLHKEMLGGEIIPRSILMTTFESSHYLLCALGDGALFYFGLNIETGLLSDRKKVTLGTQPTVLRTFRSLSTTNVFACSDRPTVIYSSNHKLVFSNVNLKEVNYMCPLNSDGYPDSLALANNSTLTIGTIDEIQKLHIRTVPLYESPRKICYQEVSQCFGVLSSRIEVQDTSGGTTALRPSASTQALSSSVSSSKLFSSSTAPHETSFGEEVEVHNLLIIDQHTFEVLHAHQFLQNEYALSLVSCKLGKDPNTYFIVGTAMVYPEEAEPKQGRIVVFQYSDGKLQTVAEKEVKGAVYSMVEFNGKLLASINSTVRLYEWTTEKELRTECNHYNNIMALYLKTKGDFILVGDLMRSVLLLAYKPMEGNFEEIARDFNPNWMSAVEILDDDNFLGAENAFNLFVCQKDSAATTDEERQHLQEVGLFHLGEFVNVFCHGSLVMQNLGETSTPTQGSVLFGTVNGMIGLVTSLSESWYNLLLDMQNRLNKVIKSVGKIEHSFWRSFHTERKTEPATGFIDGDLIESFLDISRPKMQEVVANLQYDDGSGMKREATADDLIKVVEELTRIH
Chain of IKZF2 (Q9UKS7 1-500 isoform Q9UKS7-2): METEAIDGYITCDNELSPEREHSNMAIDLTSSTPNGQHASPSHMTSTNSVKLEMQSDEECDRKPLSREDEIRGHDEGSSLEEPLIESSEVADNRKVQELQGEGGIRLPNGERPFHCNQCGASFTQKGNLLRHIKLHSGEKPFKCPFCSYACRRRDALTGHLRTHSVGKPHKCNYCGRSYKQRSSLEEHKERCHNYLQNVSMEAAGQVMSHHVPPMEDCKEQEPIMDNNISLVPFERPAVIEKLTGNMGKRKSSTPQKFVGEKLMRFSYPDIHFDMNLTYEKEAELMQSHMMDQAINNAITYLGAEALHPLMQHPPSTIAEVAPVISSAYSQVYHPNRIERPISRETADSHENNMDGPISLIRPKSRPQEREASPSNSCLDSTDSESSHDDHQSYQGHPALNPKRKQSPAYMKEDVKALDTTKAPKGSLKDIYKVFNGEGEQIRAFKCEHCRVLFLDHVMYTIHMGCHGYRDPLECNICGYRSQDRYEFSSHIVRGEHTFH
Chain of IKZF2 (Q96SW2 whole entry): as the sequence (Q96SW2 whole entry) above
Chain of IKZF2 (Q16531 whole entry partner): as the sequence (Q16531 whole entry partner) above

Row | SMILES | DC50 (IKZF1; HEK293 HiBiT) | Dmax (IKZF2) | DC50 (IKZF2) | IKZF2 Dmax (IKZF2) | Dmax (IKZF1; [1]) | IKZF1 Dmax (IKZF1; HEK293 HiBiT, maximum degradation at the highest concentration tested)
1 | CC1(C)OCCC1N[C@H]1CCCC[C@@H]1Cc1ccc2c(c1)CN(C1CCC(=O)NC1=O)C2=O (single isomer, unassigned) [Example 273] | > 1000 nM | 93% | 23 nM | – | – | –
2 | O=C1CCC(N2Cc3cc(C[C@H]4CCCC[C@@H]4N(CC4CCOCC4)CC4CCOCC4)ccc3C2=O)C(=O)N1 (stereo partly shown) [Example 70] | > 1000 nM | 48% | 80 nM | – | – | –
3 | CC(N[C@H]1CCCC[C@@H]1Cc1ccc2c(c1)CN(C1CCC(=O)NC1=O)C2=O)C1(C)CCC1 (stereo partly shown) [Example 207] | > 1000 nM | – | 2 nM | 94% | – | –
4 | O=C1CCC(N2Cc3cc(C[C@H]4CCCC[C@@H]4NC4COc5ccccc5C4)ccc3C2=O)C(=O)N1 (stereo partly shown) [Example 143] | > 1000 nM | 94% | 33 nM | – | – | –
5 | Cn1nccc1CN[C@H]1CCCC[C@@H]1Cc1ccc2c(c1)CN(C1CCC(=O)NC1=O)C2=O (stereo partly drawn) [Example 39, 3-(5-(((1R,2S)-2-(((1-methyl-1H-pyrazol-5-yl)methyl)amino)cyclohexyl)methyl)-1-oxoisoindolin-2-yl)piperidine-2,6-dione] | 265 nM | 86% | 47 nM | – | 34% | –
6 | O=C1CCC(N2Cc3cc(C[C@H]4CCC[C@H](O)[C@@H]4NC4CCC(F)(F)CC4)ccc3C2=O)C(=O)N1 (stereo partly shown) [Example 163] | 328 nM | 95% | 14 nM | – | 45% | –
7 | CC(N[C@H]1CCCC[C@@H]1Cc1ccc2c(c1)CN(C1CCC(=O)NC1=O)C2=O)C1CC1 (stereo partly shown) [Example 102] | 242 nM | 96% | 6 nM | – | 27% | –
8 | CC(C)OC1CCC(N[C@H]2CCCO[C@@H]2Cc2ccc3c(c2F)CN(C2CCC(=O)NC2=O)C3=O)CC1 (single isomer, unassigned) [Example 285] | 124 nM | – | 8 nM | 94% | 37% | –
9 | CCCCN[C@H]1CCCC[C@@H]1Cc1ccc2c(c1)CN(C1CCC(=O)NC1=O)C2=O (stereo partly shown) [Example 128] | 94 nM | 98% | 18 nM | – | 19% | –
10 | CC(C)OC1CCC(N[C@H]2CCCO[C@@H]2Cc2ccc3c(c2F)CN(C2CCC(=O)NC2=O)C3=O)CC1 (single isomer, unassigned) [Example 284] | > 1000 nM | 97% | 5 nM | – | – | –
11 | O=C1CCC(N2Cc3cc(C[C@H]4CCCC[C@@H]4NCc4ccncc4)ccc3C2=O)C(=O)N1 (stereo partly drawn) [Example 40, 3-(1-oxo-5-(((1R,2S)-2-((pyridin-4-ylmethyl)amino)cyclohexyl)methyl)isoindolin-2-yl)piperidine-2,6-dione] | > 1000 nM | 81% | 45 nM | – | – | –
12 | CC(C)N[C@H]1CCC(F)(F)C[C@@H]1Cc1ccc2c(c1)CN(C1CCC(=O)NC1=O)C2=O (stereo partly shown) [Example 315] | > 1000 nM | 88% | 28 nM | – | – | –
13 | O=C1CCC(N2Cc3c(ccc(C[C@H]4OCCC[C@@H]4NC4CCOC4)c3F)C2=O)C(=O)N1 (single isomer, unassigned) [Example 297] | > 1000 nM | – | 101 nM | 84% | – | –
14 | O=C1CCC(N2Cc3cc(C[C@H]4CCCC[C@@H]4NC4CC5CCC(C5)C4)ccc3C2=O)C(=O)N1 (stereo partly shown) [Example 191] | 63 nM | 97% | 2 nM | – | 30% | –
15 | O=C1CCC(N2Cc3cc(C[C@H]4CCCC[C@@H]4NCc4nccs4)ccc3C2=O)C(=O)N1 (stereo partly drawn) [Example 37, 3-(1-oxo-5-(((1R,2S)-2-((thiazol-2-ylmethyl)amino)cyclohexyl)methyl)isoindolin-2-yl)piperidine-2,6-dione] | > 1000 nM | 69% | 172 nM | – | – | –
16 | [2H]C([2H])(N[C@H]1CCCC[C@@H]1Cc1ccc2c(c1)CN(C1CCC(=O)NC1=O)C2=O)c1ccccc1 (single isomer, unassigned) [Example 97] | – | 92% | – | – | 30% | –

Row | SMILES | DC50 (IKZF1; HEK293 HiBiT) | Dmax (IKZF2) | DC50 (IKZF2) | IKZF2 Dmax (IKZF2) | Dmax (IKZF1; [1]) | IKZF1 Dmax (IKZF1; HEK293 HiBiT, maximum degradation at the highest concentration tested)
17 | O=C1CCC(N2Cc3cc(C[C@H]4CCCC[C@@H]4NCc4ccccc4Cl)ccc3C2=O)C(=O)N1 (stereo partly drawn) [Example 3, 3-(5-(((1R,2S)-2-((2-chlorobenzyl)amino)cyclohexyl)methyl)-1-oxoisoindolin-2-yl)piperidine-2,6-dione] | 34 nM | 94% | 19 nM | – | 38% | –
18 | COc1ccccc1CCN[C@H]1CCCC[C@@H]1Cc1ccc2c(c1)CN(C1CCC(=O)NC1=O)C2=O (stereo partly shown) [Example 76] | > 1000 nM | 84% | 34 nM | – | – | –
19 | O=C1CCC(N2Cc3cc(C[C@H]4CCCC[C@@H]4NCc4cccnc4)ccc3C2=O)C(=O)N1 (stereo partly drawn) [Example 41, 3-(1-oxo-5-(((1R,2S)-2-((pyridin-3-ylmethyl)amino)cyclohexyl)methyl)isoindolin-2-yl)piperidine-2,6-dione] | 216 nM | 90% | 24 nM | – | 44% | –
20 | O=C1CCC(N2Cc3cc(C[C@H]4C[C@@H](F)CC[C@@H]4NC4CCC(F)(F)CC4)ccc3C2=O)C(=O)N1 (stereo partly shown) [Example 341] | > 1000 nM | 87% | 21 nM | – | – | –
21 | O=C1CCC(N2Cc3cc(C[C@H]4CCCC[C@@H]4NCc4c(F)cccc4F)ccc3C2=O)C(=O)N1 (stereo partly drawn) [Example 18, 3-(5-(((1R,2S)-2-((2,6-difluorobenzyl)amino)cyclohexyl)methyl)-1-oxoisoindolin-2-yl)piperidine-2,6-dione] | > 1000 nM | 89% | 42 nM | – | – | –
22 | O=C1CCC(N2Cc3cc(C[C@H]4CCCC[C@@H]4NCCCC(F)F)ccc3C2=O)C(=O)N1 (stereo partly shown) [Example 135] | 77 nM | 93% | 16 nM | – | 24% | –
23 | CC1CCC(N[C@H]2CCCC[C@@H]2Cc2ccc3c(c2)CN(C2CCC(=O)NC2=O)C3=O)CC1 (single isomer, unassigned) [Example 280] | 70 nM | – | 3 nM | 98% | – | 29%
24 | CC1(C)CCCC(N[C@H]2CCCC[C@@H]2Cc2ccc3c(c2)CN(C2CCC(=O)NC2=O)C3=O)C1 (single isomer, unassigned) [Example 276] | > 1000 nM | – | 3 nM | 97% | – | –
25 | O=C1CCC(N2Cc3cc(C[C@H]4CCCC[C@@H]4NCc4ccc5ccccc5c4)ccc3C2=O)C(=O)N1 (stereo partly drawn) [Example 9, 3-(5-(((1R,2S)-2-((naphthalen-2-ylmethyl)amino)cyclohexyl)methyl)-1-oxoisoindolin-2-yl)piperidine-2,6-dione] | > 1000 nM | 92% | 19 nM | – | – | –
26 | CC(N[C@H]1CCCC[C@@H]1Cc1ccc2c(c1)CN(C1CCC(=O)NC1=O)C2=O)C(F)F (stereo partly shown) [Example 130] | > 1000 nM | 76% | 148 nM | – | – | –
27 | O=C1CCC(N2Cc3cc(C[C@H]4CCCC[C@@H]4NC4CCc5ccccc54)ccc3C2=O)C(=O)N1 (stereo partly shown) [Example 131] | 78 nM | 96% | 4 nM | – | 45% | –
28 | [2H]C1(N[C@H]2CCCC[C@@H]2Cc2ccc3c(c2F)CN(C2CCC(=O)NC2=O)C3=O)CCC2(CC2)CC1 (stereo partly shown) [Example 210] | 30 nM | 97% | 1 nM | – | 68% | –
29 | CC(C)N[C@H]1CC=CC[C@@H]1Cc1ccc2c(c1)CN(C1CCC(=O)NC1=O)C2=O (stereo partly drawn) [Example 54, 3-(5-(((1R,6S)-6-(isopropylamino)cyclohex-3-en-1-yl)methyl)-1-oxoisoindolin-2-yl)piperidine-2,6-dione] | > 1000 nM | 86% | 31 nM | – | – | –
30 | [2H]c1c([2H])c([2H])c(C([2H])([2H])N[C@H]2CCCC[C@@H]2Cc2ccc3c(c2)CN(C2CCC(=O)NC2=O)C3=O)c([2H])c1[2H] (single isomer, unassigned) [Example 98] | – | 87% | – | – | – | –
31 | [2H]c1c([2H])c([2H])c(CN[C@H]2CCCC[C@@H]2Cc2ccc3c(c2)CN(C2CCC(=O)NC2=O)C3=O)c([2H])c1[2H] (single isomer, unassigned) [Example 25] | – | 87% | – | – | – | –
